In ChEMBL document CHEMBL1201862, “PubChem BioAssay data set” (2004):
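Exposure lasted 48 hours, with cells grown in 96-well plates and compounds tested at five concentrations. Abbreviation: GI50, concentration required for 50% inhibition of growth.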 Active and inactive are the calls of the source. Rule as the data show it: active = GI50 up to about 1.1 µM and inactive = higher.

Key:
Experiment in all cases: DTP human tumour cell line panel, 48 h
[1] = system: MDA-MB-231
[2] = system: MOLT-4
[3] = system: HT-29
[4] = system: NCI/ADR-RES
[5] = system: MDA-MB-435
[6] = system: SK-MEL-2
[7] = system: A549
[8] = system: KM12
[9] = system: U-251
[10] = system: OVCAR-3
[11] = system: SK-MEL-5
[12] = system: K562
[13] = system: SF-539
[14] = system: LOX IMVI
[15] = system: HCT-15
[16] = system: NCI-H23
[17] = system: OVCAR-4
[18] = system: COLO 205
[19] = system: NCI-H522
[20] = system: PC-3
[21] = system: SNB-75
[22] = system: BT-549
[23] = system: IGROV-1
[24] = system: SW-620
[25] = system: T47D
[26] = system: SNB-19
[27] = system: UO-31
[28] = system: RXF 393
[29] = system: HCC 2998
[30] = system: UACC-257
[31] = system: SK-MEL-28
[32] = system: CCRF-CEM
[33] = system: M14
[34] = system: ACHN
[35] = system: HCT-116
[36] = system: HOP-62
[37] = system: OVCAR-5
[38] = system: EKVX
[39] = system: MDA-N
[40] = system: NCI-H460
[41] = system: 786-0
[42] = system: SF-268
[43] = system: TK-10
[44] = system: SF-295
[45] = system: OVCAR-8
[46] = system: NCI-H226
[47] = system: CAKI-1
[48] = system: MCF7
[49] = system: SR
[50] = system: SN12C
[51] = system: Malme-3M
[52] = system: Hs-578T
[53] = system: UACC-62
[54] = system: DU-145
[55] = system: HL-60

## CC[n+]1[b-](C(C)(C)C)n(/N=C/C(C)(C)C)[b-](C(C)(C)C)[n+]1CC
[1]
  GI50: > 100 µM (inactive)
[2]
  GI50: > 100 µM (inactive)
[3]
  GI50: > 100 µM (inactive)
[4]
  GI50: > 100 µM (inactive)
[5]
  GI50: > 100 µM (inactive)
[6]
  GI50: 70.3 µM (inactive)
[7]
  GI50: > 100 µM (inactive)
[8]
  GI50: > 100 µM (inactive)
[9]
  GI50: > 100 µM (inactive)
[10]
  GI50: > 100 µM (inactive)
[11]
  GI50: > 100 µM (inactive)
[12]
  GI50: 67.1 µM (inactive)
[13]
  GI50: > 100 µM (inactive)
[14]
  GI50: > 100 µM (inactive)
[15]
  GI50: > 100 µM
[16]
  GI50: > 100 µM (inactive)
[17]
  GI50: > 100 µM (inactive)
[18]
  GI50: > 100 µM (inactive)
[19]
  GI50: > 100 µM (inactive)
[20]
  GI50: > 100 µM (inactive)
[21]
  GI50: > 100 µM (inactive)
[22]
  GI50: > 100 µM (inactive)
[23]
  GI50: > 100 µM (inactive)
[24]
  GI50: > 100 µM (inactive)
[25]
  GI50: > 100 µM (inactive)
[26]
  GI50: > 100 µM (inactive)
[27]
  GI50: > 100 µM (inactive)
[28]
  GI50: > 100 µM (inactive)
[29]
  GI50: > 100 µM (inactive)
[30]
  GI50: > 100 µM (inactive)
[31]
  GI50: > 100 µM (inactive)
[32]
  GI50: 66.1 µM (inactive)
[33]
  GI50: > 100 µM (inactive)
[34]
  GI50: > 100 µM (inactive)
[35]
  GI50: > 100 µM (inactive)
[36]
  GI50: > 100 µM (inactive)
[37]
  GI50: > 100 µM (inactive)
[38]
  GI50: > 100 µM (inactive)
[39]
  GI50: > 100 µM (inactive)
[40]
  GI50: > 100 µM (inactive)
[41]
  GI50: > 100 µM (inactive)
[42]
  GI50: > 100 µM (inactive)
[43]
  GI50: > 100 µM (inactive)
[44]
  GI50: > 100 µM (inactive)
[45]
  GI50: > 100 µM (inactive)
[46]
  GI50: > 100 µM (inactive)
[47]
  GI50: > 100 µM (inactive)
[48]
  GI50: > 100 µM (inactive)
[49]
  GI50: > 100 µM (inactive)
[50]
  GI50: > 100 µM (inactive)
[51]
  GI50: > 100 µM (inactive)
[52]
  GI50: > 100 µM (inactive)
[53]
  GI50: > 100 µM (inactive)

## CC(C)=Nn1cnc2c1=NC(C)(C)NC=2C(N)=O
[1]
  GI50: 0.125 µM (active)
[2]
  GI50: > 10 µM (inactive)
[3]
  GI50: 1 µM (active)
[5]
  GI50: > 10 µM (inactive)
[7]
  GI50: > 10 µM (inactive)
[8]
  GI50: > 10 µM (inactive)
[9]
  GI50: > 10 µM (inactive)
[10]
  GI50: > 10 µM (inactive)
[11]
  GI50: > 10 µM (inactive)
[12]
  GI50: > 10 µM (inactive)
[13]
  GI50: > 10 µM (inactive)
[54]
  GI50: > 10 µM (inactive)
[16]
  GI50: > 10 µM (inactive)
[17]
  GI50: > 10 µM (inactive)
[19]
  GI50: > 10 µM (inactive)
[21]
  GI50: > 10 µM (inactive)
[22]
  GI50: > 10 µM (inactive)
[23]
  GI50: > 10 µM (inactive)
[25]
  GI50: 0.001 µM (active)
[26]
  GI50: > 10 µM (inactive)
[27]
  GI50: > 10 µM (inactive)
[28]
  GI50: > 10 µM (inactive)
[30]
  GI50: > 10 µM (inactive)
[32]
  GI50: > 10 µM (inactive)
[33]
  GI50: > 10 µM (inactive)
[34]
  GI50: > 10 µM (inactive)
[55]
  GI50: > 10 µM (inactive)
[37]
  GI50: > 10 µM (inactive)
[38]
  GI50: > 10 µM (inactive)
[39]
  GI50: > 10 µM (inactive)
[40]
  GI50: > 10 µM (inactive)
[41]
  GI50: > 10 µM (inactive)
[42]
  GI50: > 10 µM (inactive)
[43]
  GI50: > 10 µM (inactive)
[44]
  GI50: > 10 µM (inactive)
[45]
  GI50: > 10 µM (inactive)
[46]
  GI50: > 10 µM (inactive)
[48]
  GI50: > 10 µM (inactive)
[49]
  GI50: > 10 µM (inactive)
[52]
  GI50: > 10 µM (inactive)
